Data as given in patent US9796671B2, “Aurora kinase inhibitors” (REGENTS OF THE UNIVERSITY OF MINNESOTA, priority 2012, dated 2017).

Key:
KDR = molecular target: T1, KDR (Homo sapiens, UniProt P35968); assay: Kinase profile assay (Millipore); assay type: biochemical; settings: read-out: kinase activity compared with the control
T1 construct: purchased Millipore
Procedure: (§1) A kinase profile assay was performed by Millipore, to examine other potential targets of Compound 1. Only Akt2 activity was suppressed more than 50% after 5 μM compound 1 treatment, compared with the control (Table 2). In addition, the kinase activity of Aurora A was decreased less than 25% at 5 μM Compound 1.

MKK6 = molecular target: T2, MKK6 (Homo sapiens, UniProt P52564); assay: Kinase profile assay (Millipore); assay type: biochemical; settings: read-out: kinase activity compared with the control
T2 construct: purchased Millipore
Procedure: as §1

Fyn = molecular target: T3, Fyn (Homo sapiens, UniProt P06241); assay: Kinase profile assay (Millipore); assay type: biochemical; settings: read-out: kinase activity compared with the control
T3 construct: purchased Millipore
Procedure: as §1

IKK beta = molecular target: T4, IKK beta (Homo sapiens, UniProt O14920); assay: Kinase profile assay (Millipore); assay type: biochemical; settings: read-out: kinase activity compared with the control
T4 construct: purchased Millipore
Procedure: as §1

CHK2 = molecular target: T5, CHK2 (Homo sapiens, UniProt O96017); assay: Kinase profile assay (Millipore); assay type: biochemical; settings: read-out: kinase activity compared with the control
T5 construct: purchased Millipore
Procedure: as §1

DYRK2 = molecular target: T6, DYRK2 (Homo sapiens, UniProt Q92630); assay: Kinase profile assay (Millipore); assay type: biochemical; settings: read-out: kinase activity compared with the control
T6 construct: purchased Millipore
Procedure: as §1

MAPK2 = molecular target: T7, MAPK2 (Homo sapiens, UniProt P28482); assay: Kinase profile assay (Millipore); assay type: biochemical; settings: read-out: kinase activity compared with the control
T7 construct: purchased Millipore
Procedure: as §1

PI3-K alpha = PI3-K alpha (Homo sapiens, UniProt P42336); assay: Kinase profile assay (Millipore); assay type: biochemical; settings: read-out: kinase activity compared with the control
Procedure: as §1

EGFR = molecular target: T8, EGFR (Homo sapiens, UniProt P00533); assay: Kinase profile assay (Millipore); assay type: biochemical; settings: 5 μM
T8 construct: purchased Millipore
Procedure: as §1

CDK1/cyclinB = molecular target: T9, CDK1/cyclinB (Homo sapiens, UniProt P06493); assay: Kinase profile assay (Millipore); assay type: biochemical; settings: read-out: kinase activity compared with the control
T9 construct: purchased Millipore
Procedure: as §1

CDK3/cyclinE = molecular target: T10, CDK3/cyclinE (Homo sapiens, UniProt Q00526); assay: Kinase profile assay (Millipore); assay type: biochemical; settings: 5 μM
T10 construct: purchased Millipore
Procedure: as §1

p70S6K = molecular target: T11, p70S6K (Homo sapiens, UniProt P23443); assay: Kinase profile assay (Millipore); assay type: biochemical; settings: read-out: kinase activity compared with the control
T11 construct: purchased Millipore
Procedure: as §1

LKB1 = molecular target: T12, LKB1 (Homo sapiens, UniProt Q15831); assay: Kinase profile assay (Millipore); assay type: biochemical; settings: read-out: kinase activity compared with the control
T12 construct: purchased Millipore
Procedure: as §1

IKK alpha = molecular target: T13, IKK alpha (Homo sapiens, UniProt O15111); assay: Kinase profile assay (Millipore); assay type: biochemical; settings: read-out: kinase activity compared with the control
T13 construct: purchased Millipore
Procedure: as §1

RSK2 = molecular target: T14, RSK2 (Homo sapiens, UniProt P51812); assay: Kinase profile assay (Millipore); assay type: biochemical; settings: read-out: kinase activity compared with the control
T14 construct: purchased Millipore
Procedure: as §1

PKB beta (Akt2) = molecular target: T15, PKB beta (Akt2) (Homo sapiens, UniProt P31751); assay: Kinase profile assay (Millipore); assay type: biochemical
T15 construct: purchased Millipore
Procedure: as §1

c-RAF = molecular target: T16, c-RAF (Homo sapiens, UniProt P04049); assay: Kinase profile assay (Millipore); assay type: biochemical; settings: read-out: kinase activity compared with the control
T16 construct: purchased Millipore
Procedure: as §1

MEK1 = molecular target: T17, MEK1 (Homo sapiens, UniProt Q02750); assay: Kinase profile assay (Millipore); assay type: biochemical; settings: read-out: kinase activity compared with the control
T17 construct: purchased Millipore
Procedure: as §1

MSK2 = molecular target: T18, MSK2 (Homo sapiens, UniProt O75676); assay: Kinase profile assay (Millipore); assay type: biochemical; settings: read-out: kinase activity compared with the control
T18 construct: purchased Millipore
Procedure: as §1

Akt2 = Akt2 (Homo sapiens, UniProt P31751); assay: Akt2 in vitro kinase assay; assay type: biochemical
Procedure: According to the kinase profiler assay results, Akt2 also might be a potential target of Compound 1. An Akt1 and Akt2 in vitro kinase assays was performed.

H520 cells = assay: Anchorage-independent growth of human lung cancer cells; assay type: cell-based
Procedure: (§2) Tumor cells are suspended in basal medium Eagle (BME) medium and added to 0.6% agar, with different concentrations of Compound 1 in a base layer and a top layer of 0.3% agar. The cultures are maintained at 37° C. in a 5% CO2 incubator for 1 to 2 weeks and then colonies are counted under a microscope using the Image-Pro Plus software (v.4) program (Media Cybernetics, Silver Spring, Md.).
(§3) The effect of Compound 1 treatment on anchorage-independent growth of human lung cancer cells, including A549, H1650, and H520 cells was then examined. […] Compound 1 at 0.5 or 1 μM caused a decrease of more than 80% or 90% compared to control in all cell lines detected.

A549 cells = assay: as above; assay type: cell-based
Procedure: as §2, §3

H1650 cells = assay: as above; assay type: cell-based
Procedure: as §2, §3

[1] = tested on: human A549 lung cancer cell xenografts; assay: A549 xenograft in athymic nude mice, intraperitoneal; assay type: in vivo
Procedure: Tumor tissues from mice are embedded in a paraffin block and subjected to hematoxylin and eosin (H&E) staining and immunohistochemistry. Tumor tissues are deparaffinized and hydrated, then permeabilized with 0.5% Triton X-100/1 PBS for 10 min, hybridized with Ki-67 (1:500) as the primary antibody and an HRP-conjugated goat anti-rabbit or mouse IgG antibody is used as the secondary antibody. After developing with 3,30-diaminobenzidine, the sections are counterstained with H&E. All sections are observed by microscope and the Image-Pro Plus software (v.4) program (Media Cybernetics).
The ability of Compound 1 to inhibit the growth of human A549 lung cancer cell xenografts in athymic nude mice was then evaluated. Tumor volumes were measured twice a week and mouse weights were determined once a week. Compound 1 caused a marked reduction in tumor size in the human A549 xenograft model. In mice treated with Compound 1 at 20 mg/kg, twice a week intraperitoneally, mean tumor volumes were reduced to 164 mm^3 in comparison with control group (408 mm^3) (P<0.01). […] Moreover, the effects of Compound 1 on a tumor proliferation marker were evaluated by immunohistochemistry and H&E staining of A549 tumor tissues after the 31 days of treatment.

Akt2, sequence (P31751 whole entry, species assumed): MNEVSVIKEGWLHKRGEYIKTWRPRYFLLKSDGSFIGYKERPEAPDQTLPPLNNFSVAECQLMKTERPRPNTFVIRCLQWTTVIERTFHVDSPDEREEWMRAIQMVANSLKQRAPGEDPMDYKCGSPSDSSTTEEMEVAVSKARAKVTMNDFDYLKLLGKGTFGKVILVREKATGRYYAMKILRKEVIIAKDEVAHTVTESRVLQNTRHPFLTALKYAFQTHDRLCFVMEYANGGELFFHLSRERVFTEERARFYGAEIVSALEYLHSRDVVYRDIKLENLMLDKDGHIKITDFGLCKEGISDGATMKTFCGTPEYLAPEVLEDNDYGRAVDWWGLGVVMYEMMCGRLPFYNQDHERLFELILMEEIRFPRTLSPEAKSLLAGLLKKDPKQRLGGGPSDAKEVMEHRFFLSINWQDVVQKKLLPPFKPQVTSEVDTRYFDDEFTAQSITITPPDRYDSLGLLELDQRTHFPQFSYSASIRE
T15 sequence (P31751 whole entry, species assumed): as above
T7 sequence (P28482 whole entry): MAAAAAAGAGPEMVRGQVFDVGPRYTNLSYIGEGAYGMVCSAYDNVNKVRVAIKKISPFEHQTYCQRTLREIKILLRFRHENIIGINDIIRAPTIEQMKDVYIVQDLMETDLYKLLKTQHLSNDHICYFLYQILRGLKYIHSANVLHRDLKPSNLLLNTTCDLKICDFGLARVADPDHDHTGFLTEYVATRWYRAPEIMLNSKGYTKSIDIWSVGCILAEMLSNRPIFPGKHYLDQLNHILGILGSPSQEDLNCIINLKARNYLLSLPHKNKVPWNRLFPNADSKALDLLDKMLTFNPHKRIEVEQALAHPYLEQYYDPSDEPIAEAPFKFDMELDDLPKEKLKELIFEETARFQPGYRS
T1 sequence (P35968 20-1356, species assumed): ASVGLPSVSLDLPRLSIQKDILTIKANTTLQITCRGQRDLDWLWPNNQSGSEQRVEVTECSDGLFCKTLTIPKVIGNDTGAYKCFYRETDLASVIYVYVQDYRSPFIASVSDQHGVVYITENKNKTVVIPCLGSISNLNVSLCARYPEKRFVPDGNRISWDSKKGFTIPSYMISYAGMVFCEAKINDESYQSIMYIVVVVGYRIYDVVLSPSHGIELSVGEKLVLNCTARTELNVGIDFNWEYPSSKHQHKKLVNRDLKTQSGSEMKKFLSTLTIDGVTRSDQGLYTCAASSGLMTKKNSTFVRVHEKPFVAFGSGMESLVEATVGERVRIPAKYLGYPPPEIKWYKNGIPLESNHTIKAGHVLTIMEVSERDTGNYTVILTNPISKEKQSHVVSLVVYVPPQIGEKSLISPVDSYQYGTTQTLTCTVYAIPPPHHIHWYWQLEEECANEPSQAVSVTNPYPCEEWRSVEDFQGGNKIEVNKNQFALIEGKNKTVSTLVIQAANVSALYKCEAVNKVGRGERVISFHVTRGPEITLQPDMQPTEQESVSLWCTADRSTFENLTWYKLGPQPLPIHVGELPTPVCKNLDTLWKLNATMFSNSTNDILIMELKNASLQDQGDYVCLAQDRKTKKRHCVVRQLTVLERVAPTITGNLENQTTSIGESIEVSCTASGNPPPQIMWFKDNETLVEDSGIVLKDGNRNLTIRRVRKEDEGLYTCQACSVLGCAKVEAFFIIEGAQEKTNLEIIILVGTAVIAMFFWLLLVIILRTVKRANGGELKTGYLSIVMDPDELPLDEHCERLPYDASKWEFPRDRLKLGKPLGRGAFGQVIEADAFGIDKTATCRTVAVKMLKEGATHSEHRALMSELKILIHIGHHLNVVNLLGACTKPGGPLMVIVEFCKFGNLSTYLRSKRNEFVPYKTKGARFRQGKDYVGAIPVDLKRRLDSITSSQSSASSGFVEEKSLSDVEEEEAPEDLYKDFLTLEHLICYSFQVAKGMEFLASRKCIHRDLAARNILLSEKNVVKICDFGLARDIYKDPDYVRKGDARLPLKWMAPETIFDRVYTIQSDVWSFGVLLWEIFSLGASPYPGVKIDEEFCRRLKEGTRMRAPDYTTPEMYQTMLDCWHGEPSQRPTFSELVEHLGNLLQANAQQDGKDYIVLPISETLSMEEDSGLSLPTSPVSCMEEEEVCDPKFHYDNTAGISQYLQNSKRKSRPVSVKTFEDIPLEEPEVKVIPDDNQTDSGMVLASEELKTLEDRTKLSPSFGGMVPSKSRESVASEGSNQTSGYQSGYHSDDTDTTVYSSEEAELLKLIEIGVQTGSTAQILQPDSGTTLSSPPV
T18 sequence (O75676 whole entry, species assumed): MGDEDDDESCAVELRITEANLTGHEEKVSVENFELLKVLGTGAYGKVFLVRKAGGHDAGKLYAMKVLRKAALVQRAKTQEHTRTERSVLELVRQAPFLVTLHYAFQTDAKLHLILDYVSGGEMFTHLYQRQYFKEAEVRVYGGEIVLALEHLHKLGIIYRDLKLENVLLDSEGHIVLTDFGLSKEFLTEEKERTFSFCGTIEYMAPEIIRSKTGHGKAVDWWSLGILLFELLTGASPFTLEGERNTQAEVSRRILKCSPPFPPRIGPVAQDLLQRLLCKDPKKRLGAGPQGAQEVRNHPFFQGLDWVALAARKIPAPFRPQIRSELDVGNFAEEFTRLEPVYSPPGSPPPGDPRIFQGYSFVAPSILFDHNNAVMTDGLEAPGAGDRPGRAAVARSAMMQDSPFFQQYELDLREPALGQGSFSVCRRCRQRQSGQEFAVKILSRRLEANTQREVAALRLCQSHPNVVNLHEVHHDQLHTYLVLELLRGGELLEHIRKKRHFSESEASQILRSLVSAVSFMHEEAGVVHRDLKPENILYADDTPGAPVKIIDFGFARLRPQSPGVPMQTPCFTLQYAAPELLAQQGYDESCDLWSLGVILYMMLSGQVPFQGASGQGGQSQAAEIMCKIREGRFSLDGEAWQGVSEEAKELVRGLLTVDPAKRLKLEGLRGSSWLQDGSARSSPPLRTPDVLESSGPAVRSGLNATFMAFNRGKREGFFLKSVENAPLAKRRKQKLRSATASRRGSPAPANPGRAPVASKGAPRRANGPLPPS
T13 sequence (O15111 whole entry, species assumed): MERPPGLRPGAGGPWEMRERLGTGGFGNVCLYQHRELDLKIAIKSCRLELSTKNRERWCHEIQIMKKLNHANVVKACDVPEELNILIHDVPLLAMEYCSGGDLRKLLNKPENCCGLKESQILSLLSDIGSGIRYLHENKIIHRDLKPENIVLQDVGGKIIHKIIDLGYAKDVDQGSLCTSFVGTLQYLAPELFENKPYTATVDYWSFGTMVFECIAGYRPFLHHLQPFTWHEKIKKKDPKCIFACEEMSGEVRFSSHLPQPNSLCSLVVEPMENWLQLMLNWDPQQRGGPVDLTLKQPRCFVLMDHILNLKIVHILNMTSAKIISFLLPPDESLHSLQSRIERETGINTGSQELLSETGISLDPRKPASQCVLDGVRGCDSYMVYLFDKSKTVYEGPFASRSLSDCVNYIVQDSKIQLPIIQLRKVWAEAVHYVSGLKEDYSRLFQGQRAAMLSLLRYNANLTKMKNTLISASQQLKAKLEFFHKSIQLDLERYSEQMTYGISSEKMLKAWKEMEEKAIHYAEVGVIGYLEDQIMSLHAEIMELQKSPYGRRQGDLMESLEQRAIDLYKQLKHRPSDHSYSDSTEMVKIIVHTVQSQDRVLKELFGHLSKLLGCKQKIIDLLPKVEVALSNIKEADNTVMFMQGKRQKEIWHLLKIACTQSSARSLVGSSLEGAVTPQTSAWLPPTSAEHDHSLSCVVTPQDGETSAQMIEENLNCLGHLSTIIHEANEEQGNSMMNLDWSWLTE
T4 sequence (O14920 whole entry, species assumed): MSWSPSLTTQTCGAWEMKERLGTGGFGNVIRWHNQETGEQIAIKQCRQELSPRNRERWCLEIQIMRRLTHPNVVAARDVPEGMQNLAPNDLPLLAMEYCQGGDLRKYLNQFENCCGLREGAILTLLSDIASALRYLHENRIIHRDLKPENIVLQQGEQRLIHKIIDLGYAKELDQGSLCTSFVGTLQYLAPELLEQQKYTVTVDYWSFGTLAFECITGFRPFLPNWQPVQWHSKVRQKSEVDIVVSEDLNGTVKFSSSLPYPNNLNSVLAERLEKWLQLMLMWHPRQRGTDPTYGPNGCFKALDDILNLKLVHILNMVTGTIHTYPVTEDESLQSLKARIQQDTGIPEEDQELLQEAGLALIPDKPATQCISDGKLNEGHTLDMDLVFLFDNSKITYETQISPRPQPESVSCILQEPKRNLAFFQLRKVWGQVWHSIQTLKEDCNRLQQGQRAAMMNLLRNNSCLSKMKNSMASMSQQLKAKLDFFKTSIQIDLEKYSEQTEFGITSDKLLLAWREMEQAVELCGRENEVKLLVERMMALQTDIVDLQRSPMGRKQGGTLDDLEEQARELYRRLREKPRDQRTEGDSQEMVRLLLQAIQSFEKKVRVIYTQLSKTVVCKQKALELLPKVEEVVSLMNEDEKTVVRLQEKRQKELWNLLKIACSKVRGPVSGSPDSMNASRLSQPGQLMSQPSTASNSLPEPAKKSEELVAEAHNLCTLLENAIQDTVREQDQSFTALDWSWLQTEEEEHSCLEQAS
T17 sequence (Q02750 whole entry, species assumed): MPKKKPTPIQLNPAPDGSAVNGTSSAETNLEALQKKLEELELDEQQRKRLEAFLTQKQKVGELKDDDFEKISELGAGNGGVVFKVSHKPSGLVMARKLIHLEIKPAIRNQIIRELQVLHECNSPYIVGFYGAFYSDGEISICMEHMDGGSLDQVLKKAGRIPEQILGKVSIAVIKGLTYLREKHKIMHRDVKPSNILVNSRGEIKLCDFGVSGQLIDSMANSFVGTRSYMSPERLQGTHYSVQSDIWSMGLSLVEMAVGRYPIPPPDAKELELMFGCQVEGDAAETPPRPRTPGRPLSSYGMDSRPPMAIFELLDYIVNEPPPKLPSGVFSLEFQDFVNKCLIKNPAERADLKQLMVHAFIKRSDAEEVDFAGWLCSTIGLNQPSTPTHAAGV

O=C(/C=C/c1ccc2c(c1)OCO2)/C=C1/C(=O)Nc2ccccc21 [Compound 1]
remaining activity at 5 µM (KDR): 93%
remaining activity at 5 µM (MKK6): 129%
remaining activity at 5 µM (Fyn): 99%
remaining activity at 5 µM (IKK beta): 68%
remaining activity at 5 µM (CHK2): 75%
remaining activity at 5 µM (DYRK2): 97%
remaining activity at 5 µM (MAPK2): 102%
remaining activity at 5 µM (PI3-K alpha): 102%
kinase activity compared with the control (EGFR): 106
remaining activity at 5 µM (CDK1/cyclinB): 86%
kinase activity compared with the control (CDK3/cyclinE): 99
remaining activity at 5 µM (p70S6K): 72%
remaining activity at 5 µM (LKB1): 87%
remaining activity at 5 µM (IKK alpha): 83%
remaining activity at 5 µM (RSK2): 94%
Akt2 activity suppressed compared with the control (kinase profile) (PKB beta (Akt2); 5 μM): more than 50%
remaining activity at 5 µM (PKB beta (Akt2); PKB beta (Akt2), read-out: kinase activity compared with the control): 47%
remaining activity at 5 µM (c-RAF): 87%
remaining activity at 5 µM (MEK1): 104%
remaining activity at 5 µM (MSK2): 79%
inhibition at 5 µM (Akt2; 5 μM): 52%
concentration inhibiting Akt2 kinase activity in vitro (Akt2; discussion statement): ≥ 1 µM
decrease of anchorage-independent growth compared to control (H520 cells; H520, 0.5 μM): more than 80%
decrease of anchorage-independent growth compared to control (H520 cells; H520, 1 μM): > 90%
decrease of anchorage-independent growth compared to control (A549 cells; A549, 0.5 μM): more than 80%
decrease of anchorage-independent growth compared to control (A549 cells; A549, 1 μM): > 90%
decrease of anchorage-independent growth compared to control (H1650 cells; H1650, 0.5 μM): more than 80%
decrease of anchorage-independent growth compared to control (H1650 cells; H1650, 1 μM): > 90%
loss of body weight ([1]; 20 mg/kg, twice a week intraperitoneally): no obvious loss
mean tumor volume ([1]; 20 mg/kg, twice a week intraperitoneally, control group 408 mm^3, P<0.01): 164 mm^3
expression of Ki-67 in A549 tumor tissues (immunohistochemistry) ([1]; after the 31 days of treatment): markedly decreased
